Laboratory results reported in US10294234B2, “HIV inhibitor compounds” (priority 2017, dated 2019).

Each molecule was assayed on HIV-1 (IIIB) in MT-4 cells (assay: MT-4 HIV assay). Settings: Human immunodeficiency virus 1, MT4, 120 h; HIV-1 (IIIB), MT-4 cells, 5 days, Cell Titer Glo; read-out: EC50.
Format: cell-based
Summary of the method: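 Antiviral activity was read by Cell Titer Glo after a 5-day, 37 °C culture of MT-4 cells pre-infected with a 1:250 dilution of HIV-1 (IIIB). Compounds were tested as threefold dilution series in complete RPMI. Controls were no drug, mock infection and 5 uM AZT.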

Row | Compound | EC50 [nM]
1 | COC(=O)N[C@H](C(=O)NN(Cc1c(F)cc(-c2ccn(C(F)F)n2)cc1F)C[C@H](O)[C@H](Cc1ccc(C#Cc2ccc(N3CCN4CCOC[C@H]4C3)nc2)cc1)NC(=O)[C@@H](NC(=O)OC)C(C)(C)C(F)(F)F)C(C)(C)C [Example 13, Methyl ((5S,8S,9S,14S)-11-(4-(1-(difluoromethyl)-1H-pyrazol-3-yl)-2,6-difluorobenzyl)-8-(4-((6-((R)-hexahydropyrazino[2,1-c][1,4]oxazin-8(1H)-yl)pyridin-3-yl)ethynyl)benzyl)-9-hydroxy-15,15-dimethyl-3,6,13-trioxo-5-(1,1,1-trifluoro-2-methylpropan-2-yl)-2-oxa-4,7,11,12-tetraazahexadecan-14-yl)carbamate] | 6.3
2 | CC1(C(=O)N[C@H](C(=O)N[C@@H](Cc2ccc(-c3cnn(C(F)F)c3)cc2)[C@@H](O)CN(Cc2c(F)cc(-c3cnn(C(F)F)c3)cc2F)NC(=O)[C@@H](NC(=O)C2(C)CC2)C(C)(C)C(F)(F)F)C(C)(C)C(F)(F)F)CC1 [Example 216, N—((S)-1-(2-(4-(1-(difluoromethyl)-1H-pyrazol-4-yl)-2,6-difluorobenzyl)-2-((2S,3S)-4-(4-(1-(difluoromethyl)-1H-pyrazol-4-yl)phenyl)-2-hydroxy-3-((S)-4,4,4-trifluoro-3,3-dimethyl-2-(1-methylcyclopropane-1-carboxamido)butanamido)butyl)hydrazinyl)-4,4,4-trifluoro-3,3-dimethyl-1-oxobutan-2-yl)-1-methylcyclopropane-1-carboxamide] | 114
3 | COC(=O)N[C@H](C(=O)N[C@@H](Cc1ccc(C#Cc2ccc(N3CC4CCC(C3)N4C3COC3)nc2)cc1)[C@@H](O)CN(Cc1ccc(-c2ccccn2)cc1F)NC(=O)[C@@H](NC(=O)OC)C(C)(C)C(F)(F)F)C(C)(C)C(F)(F)F [Example 245, Methyl ((5S,8S,9S,14S)-16,16,16-trifluoro-11-(2-fluoro-4-(pyridin-2-yl)benzyl)-9-hydroxy-15,15-dimethyl-8-(4-((6-(8-(oxetan-3-yl)-3,8-diazabicyclo[3.2.1]octan-3-yl)pyridin-3-yl)ethynyl)benzyl)-3,6,13-trioxo-5-(1,1,1-trifluoro-2-methylpropan-2-yl)-2-oxa-4,7,11,12-tetraazahexadecan-14-yl)carbamate] | 3.59
4 | COC(=O)N[C@H](C(=O)N[C@@H](Cc1ccc(C#Cc2ccc(N3CC4CCC(C3)N4C3COC3)nc2)cc1)[C@@H](O)CN(Cc1c(F)cc(-c2ccn(C)n2)cc1F)NC(=O)[C@@H](NC(=O)OC)C(C)(C)C)C(C)(C)C [Example 22, Methyl ((5S,8S,9S,14S)-5-(tert-butyl)-1-(2,6-difluoro-4-(1-methyl-1H-pyrazol-3-yl)benzyl)-9-hydroxy-15,15-dimethyl-8-(4-((6-(8-(oxetan-3-yl)-3,8-diazabicyclo[3.2.1]octan-3-yl)pyridin-3-yl)ethynyl)benzyl)-3,6,13-trioxo-2-oxa-4,7,11,12-tetraazahexadecan-14-yl)carbamate] | 3.24
5 | CCC(=O)N[C@H](C(=O)N[C@@H](Cc1ccc(C#Cc2cnc(N3CC4CCC(C3)N4C3COC3)nc2)cc1)[C@@H](O)CN(Cc1c(F)cc(-c2ccn(C(F)F)n2)cc1F)NC(=O)[C@@H](NC(=O)CC)C(C)(C)C(F)(F)F)C(C)(C)C(F)(F)F [Example 181, (2S)—N-((2S,3S)-4-(1-(4-(1-(difluoromethyl)-1H-pyrazol-3-yl)-2,6-difluorobenzyl)-2-((S)-4,4,4-trifluoro-3,3-dimethyl-2-propionamidobutanoyl)hydrazinyl)-3-hydroxy-1-(4-((2-(8-(oxetan-3-yl)-3,8-diazabicyclo[3.2.1]octan-3-yl)pyrimidin-5-yl)ethynyl)phenyl)butan-2-yl)-4,4,4-trifluoro-3,3-dimethyl-2-propionamidobutanamide] | 8.5
6 | COC(=O)N[C@H](C(=O)NN(Cc1ccc(-c2cnn(C(F)F)c2)cc1F)C[C@H](O)[C@H](Cc1ccc(C#Cc2ccc(N3CC4CCC(C3)N4C3COC3)nc2)cc1)NC(=O)[C@@H](NC(=O)OC)C(C)(C)C(F)(F)F)C(C)(C)C [Example 230, methyl ((5S,8S,9S,14S)-11-(4-(1-(difluoromethyl)-1H-pyrazol-4-yl)-2-fluorobenzyl)-9-hydroxy-15,15-dimethyl-8-(4-((6-(8-(oxetan-3-yl)-3,8-diazabicyclo[3.2.1]octan-3-yl)pyridin-3-yl)ethynyl)benzyl)-3,6,13-trioxo-5-(1,1,1-trifluoro-2-methylpropan-2-yl)-2-oxa-4,7,11,12-tetraazahexadecan-14-yl)carbamate] | 3.97
7 | COC(=O)N[C@H](C(=O)N[C@@H](Cc1ccc(C#Cc2ccc(N3CC4CCC(C3)N4c3ncccn3)nc2)cc1)[C@@H](O)CN(Cc1c(F)cc(-c2ccn(C)n2)cc1F)NC(=O)[C@@H](NC(=O)OC)C(C)(C)C)C(C)(C)C [Example 226] | 14.9
8 | COC(=O)N[C@H](C(=O)N[C@@H](Cc1ccc(C#Cc2ccc(N3CC4CCC(C3)N4C3COC3)nc2)cc1)[C@@H](O)CN(Cc1ccc(-c2cnn(C(F)F)c2)cc1F)NC(=O)[C@@H](NC(=O)OC)C(C)(C)C(F)(F)F)C(C)(C)C(F)(F)F [Example 157, Methyl ((5S,8S,9S,14S)-11-(4-(1-(difluoromethyl)-1H-pyrazol-4-yl)-2-fluorobenzyl)-16,16,16-trifluoro-9-hydroxy-15,15-dimethyl-8-(4-((6-(8-(oxetan-3-yl)-3,8-diazabicyclo[3.2.1]octan-3-yl)pyridin-3-yl)ethynyl)benzyl)-3,6,13-trioxo-5-(1,1,1-trifluoro-2-methylpropan-2-yl)-2-oxa-4,7,11,12-tetraazahexadecan-14-yl)carbamate] | 4.53
9 | COC(=O)N[C@H](C(=O)N[C@@H](Cc1ccc(C#Cc2cnc(N3CC4CCC(C3)N4C3COC3)nc2)cc1)[C@@H](O)CN(Cc1ccc(-c2ccn(C3CC3)n2)cc1)NC(=O)[C@@H](NC(=O)OC)C(C)(C)C(F)(F)F)C(C)(C)C(F)(F)F [Example 33, Methyl ((5S,8S,9S,14S)-11-(4-(1-cyclopropyl-1H-pyrazol-3-yl)benzyl)-16,16,16-trifluoro-9-hydroxy-15,15-dimethyl-8-(4-((2-(8-(oxetan-3-yl)-3,8-diazabicyclo [3.2.1]octan-3-yl)pyrimidin-5-yl)ethynyl)benzyl)-3,6,13-trioxo-5-(1,1,1-trifluoro-2-methylpropan-2-yl)-2-oxa-4,7,11,12-tetraazahexadecan-14-yl)carbamate] | 4.71
10 | COC(=O)N[C@H](C(=O)N[C@@H](Cc1ccc(C#Cc2ccc(N3CC4CCC(C3)N4C(C)C)nc2)cc1)[C@@H](O)CN(Cc1c(F)cc(-c2ccccn2)cc1F)NC(=O)[C@@H](NC(=O)OC)C(C)(C)C(F)(F)F)C(C)(C)C(F)(F)F [Example 240, methyl ((5S,8S,9S,14S)-11-(2,6-difluoro-4-(pyridin-2-yl)benzyl)-16,16,16-trifluoro-9-hydroxy-8-(4-((6-(8-isopropyl-3,8-diazabicyclo[3.2.1]octan-3-yl)pyridin-3-yl)ethynyl)benzyl)-15,15-dimethyl-3,6,13-trioxo-5-(1,1,1-trifluoro-2-methylpropan-2-yl)-2-oxa-4,7,11,12-tetraazahexadecan-14-yl)carbamate] | 5.62
11 | COC(=O)N[C@H](C(=O)N[C@@H](Cc1ccc(C#Cc2ccc(N3CC4CCC(C3)N4C3COC3)nc2)cc1)[C@@H](O)CN(Cc1c(F)cc(-c2ccn(C(F)F)n2)cc1F)NC(=O)[C@@H](NC(=O)OC1CC1)C(C)(C)C)C(C)(C)C(F)(F)F [Example 187, cyclopropyl ((5S,8S,9S,14S)-11-(4-(1-(difluoromethyl)-1H-pyrazol-3-yl)-2,6-difluorobenzyl)-9-hydroxy-15,15-dimethyl-8-(4-((6-(8-(oxetan-3-yl)-3,8-diazabicyclo[3.2.1]octan-3-yl)pyridin-3-yl)ethynyl)benzyl)-3,6,13-trioxo-5-(1,1,1-trifluoro-2-methylpropan-2-yl)-2-oxa-4,7,11,12-tetraazahexadecan-14-yl)carbamate] | 4.7
12 | COC(=O)N[C@H](C(=O)NN(Cc1c(F)cc(-c2ccccn2)cc1F)C[C@H](O)[C@H](Cc1ccc(C#Cc2ccc(N3CC4CCC(C3)N4C(=O)[C@@H]3CCCO3)nc2)cc1)NC(=O)[C@@H](NC(=O)OC)C(C)(C)C(F)(F)F)C(C)(C)C [Example 224, Methyl ((5S,8S,9S,14S)-11-(2,6-difluoro-4-(pyridin-2-yl)benzyl)-9-hydroxy-15,15-dimethyl-3,6,13-trioxo-8-(4-((6-(8-((S)-tetrahydrofuran-2-carbonyl)-3,8-diazabicyclo [3.2.1]octan-3-yl)pyridin-3-yl)ethynyl)benzyl)-5-(1,1,1-trifluoro-2-methylpropan-2-yl)-2-oxa-4,7,11,12-tetraazahexadecan-14-yl)carbamate] | 4.12
13 | COC(=O)N[C@H](C(=O)N[C@@H](Cc1ccc(C#Cc2ccc(N3CC4CC(C3)N4C3COC3)nc2)cc1)[C@@H](O)CN(Cc1c(F)cc(-c2cc(F)ccn2)cc1F)NC(=O)[C@@H](NC(=O)OC)C(C)(C)C(F)(F)F)C(C)(C)C(F)(F)F [Example 140, Methyl ((5S,10S,11S,14S)-8-(2,6-difluoro-4-(4-fluoropyridin-2-yl)benzyl)-16,16,16-trifluoro-10-hydroxy-15,15-dimethyl-11-(4-((6-(6-(oxetan-3-yl)-3,6-diazabicyclo [3.1.1]heptan-3-yl)pyridin-3-yl)ethynyl)benzyl)-3,6,13-trioxo-5-(1,1,1-trifluoro-2-methylpropan-2-yl)-2-oxa-4,7,8,12-tetraazahexadecan-14-yl)carbamate] | 5.09
